Measurements published in PMC11981762 (Computational and Structural Biotechnology Journal, 2025).
Residue numbers refer to the chain shown, from its start.

What was measured:
[1] = molecular target: T1, human neuronal glycine receptor α1 (Homo sapiens, UniProt P23415); assay: Two-electrode voltage clamp of glycine-evoked current; format: cell-based
T1 sequence (P23415 29-457): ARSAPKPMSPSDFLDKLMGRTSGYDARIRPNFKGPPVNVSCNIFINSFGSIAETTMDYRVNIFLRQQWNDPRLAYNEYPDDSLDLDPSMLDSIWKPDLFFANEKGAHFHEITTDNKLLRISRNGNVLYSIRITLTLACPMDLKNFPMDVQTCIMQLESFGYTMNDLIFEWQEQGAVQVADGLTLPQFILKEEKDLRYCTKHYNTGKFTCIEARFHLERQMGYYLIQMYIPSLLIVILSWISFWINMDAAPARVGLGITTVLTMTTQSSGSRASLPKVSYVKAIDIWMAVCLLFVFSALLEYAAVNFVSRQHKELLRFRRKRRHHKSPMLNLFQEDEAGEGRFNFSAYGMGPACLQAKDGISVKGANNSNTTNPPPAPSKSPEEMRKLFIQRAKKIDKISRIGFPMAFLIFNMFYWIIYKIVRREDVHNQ

[2] = molecular target: T2, glycine receptor α1 F124A (Homo sapiens, UniProt P23415, F136A); format: cell-based
T2 sequence (P23415 29-457 F136A): T1 sequence (P23415 29-457) with F108A

[3] = cited from earlier work
[4] = molecular target: T3, glycine receptor α1 D130A (Homo sapiens, UniProt P23415, D142A); format: cell-based
T3 sequence (P23415 29-457 D142A): T1 sequence (P23415 29-457) with D114A

[5] = molecular target: T4, 5-HT3a (Homo sapiens, UniProt P46098); assay: Interaction with ligand-gated channel 5-HT3a
T4 sequence (P46098 24-478): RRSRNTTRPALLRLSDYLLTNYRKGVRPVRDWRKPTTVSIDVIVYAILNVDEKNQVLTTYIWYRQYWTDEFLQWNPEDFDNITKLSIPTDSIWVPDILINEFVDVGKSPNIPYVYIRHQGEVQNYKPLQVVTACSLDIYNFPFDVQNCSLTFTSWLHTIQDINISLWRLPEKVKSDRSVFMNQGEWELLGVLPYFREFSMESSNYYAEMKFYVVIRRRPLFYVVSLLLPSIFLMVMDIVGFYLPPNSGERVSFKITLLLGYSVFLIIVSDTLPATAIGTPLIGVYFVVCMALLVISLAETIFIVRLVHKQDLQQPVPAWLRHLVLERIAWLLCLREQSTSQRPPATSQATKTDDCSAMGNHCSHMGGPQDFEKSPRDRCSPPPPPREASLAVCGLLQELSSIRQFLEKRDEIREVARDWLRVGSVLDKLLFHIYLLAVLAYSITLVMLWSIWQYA

[6] = molecular target: T5, glycine receptor α1 F124A + D130A (Homo sapiens, UniProt P23415, D142A/F136A); format: cell-based; conditions: double mutant α1 F124A and D130A
T5 sequence (P23415 29-457 F136A/D142A): T1 sequence (P23415 29-457) with F108A, D114A

[7] = glycine concentration-response in presence of 10 µM EG
[8] = glycine concentration-response in presence of 100 µM EG

NCC(=O)O [glycine]
nH (Hill's coefficient) of glycine-induced current ([1]; Control, absence of ergotamine): 1.1 ± 0.3 | Imax (maximum response) of glycine-induced current ([1]; Control, absence of ergotamine, glycine 0.3 to 100 µM, −80 mV): 99.6 ± 2.4

CN1C[C@H](C(=O)N[C@]2(C)O[C@@]3(O)[C@@H]4CCCN4C(=O)[C@H](Cc4ccccc4)N3C2=O)C=C2c3cccc4[nH]cc(c34)C[C@H]21 [ergotamine]
IC50 [2]: 25.7 ± 2.9 µM | Imax (maximum response) of ergotamine inhibition of glycine-evoked current ([2]; α1 F124A): 42.4 ± 1.5 | nH (Hill's coefficient) ([2]; α1 F124A): 1.3 ± 0.1 | penetration across the blood-brain barrier [3]: relatively poor penetration | IC50 [4]: 28.1 ± 9.7 µM | Imax (maximum response) of ergotamine inhibition of glycine-evoked current ([4]; α1 D130A): 32.1 ± 8.8 | nH (Hill's coefficient) ([4]; α1 D130A): 1.1 ± 0.3 | interaction with 5-HT3a [5]: does not interact | Hill coefficient [6]: 1.9 ± 0.6 | IC50 [1]: 5.7 ± 0.7 µM | reversal potential ([1]; application of ergotamine and glycine or glycine alone, voltage ramp −100 to +60 mV): approximately 0 mV | inhibition of IGly in voltage ramp ([1]; ergotamine 10 µM + 100 µM glycine, at +60 mV): 42.3 ± 6.2% | inhibition of IGly in voltage ramp ([1]; ergotamine 10 µM + 100 µM glycine, at −100 mV): 39.9 ± 4.8% | inhibition of IGly in voltage ramp ([1]; ergotamine 100 µM + 100 µM glycine, at +60 mV): 74.6 ± 5.4% | inhibition of IGly in voltage ramp ([1]; ergotamine 100 µM + 100 µM glycine, at −100 mV): 71.9 ± 4.1% | voltage dependence of inhibition (current-voltage relationship) ([1]; ergotamine 10 or 100 µM + 100 µM glycine, ramps −100 to +60 mV): voltage insensitive | reversibility of inhibition of IGly ([1]; ergotamine and glycine co-application, washout): reversible | relation between glycine and ergotamine (competition test) ([1]; glycine 0–100 µM with or without ergotamine 10 or 100 µM): non-competitive | Imax (maximum response) of glycine-induced current [1, 7]: 53.9 ± 2.3 | nH (Hill's coefficient) of glycine-induced current [1, 7]: 1.2 ± 0.2 | Imax (maximum response) of glycine-induced current [1, 8]: 31.7 ± 0.5 | nH (Hill's coefficient) of glycine-induced current [1, 8]: 0.9 ± 0.2 | effect on desensitization ([1]; prolonged glycine application): did not alter desensitization kinetics or induce desensitization | inhibition at 10 µM ([1]; read-out: inhibition of the current stimulated by 100 µM glycine): 59.8 ± 2.9% | effect of ergotamine alone on IGly ([1]; various concentrations of ergotamine without glycine, holding potential −80 mV): no effect | nH (Hill's coefficient) ([1]; α1 wild): 1.2 ± 0.2 | Imax (maximum response) of ergotamine inhibition of glycine-evoked current ([1]; α1 wild, 100 µM glycine, −80 mV): 91.5 ± 2.2
